Test system: human fibrosarcoma HT1080 cells
Assay: Velocity of matrix-embedded cells in 3D collagen I matrix (live-cell tracking)
Assay type: cell-based
Details: for cell velocity / cell migration on addition of recombinant cytokine: HT1080 seeded at low density (10 cells/mm^3), combination at the precise concentrations found at 50 cells/mm^3, ratio 5:2; for cell velocity: human fibrosarcoma cells embedded in a 3D matrix at LD (ρ=10) and HD (ρ=50), compared to cells exposed to fresh medium (0); for cell-density-dependent migration: matrix-embedded cells at low and high cell densities
Experimental: HT1080 cells were embedded in 2mg/ml type I collagen gel as described previously by Fraley et al^20. Briefly, cell suspensions containing 5000 to 75,000 cells in 1:1 (v/v) ratio of cell culture media and reconstitution buffer were mixed with appropriate volume of soluble rat-tail collagen I (Corning Inc.) to obtain a final collagen I concentration of 2 mg/ml. A calculated amount of 1M NaOH was added quickly and the final solution was mixed well to bring the pH to ˜7. The cell suspensions was added to a 24-well coverslip-bottom cell-culture dish and immediately transferred to an incubator maintained at 36° C. to allow polymerization. Fresh medium was added 1 h before imaging. MDA MB 231 and U-87 cells were embedded in 1 mg/ml type I collagen matrix
Phase-contrast images of matrix-embedded cells were recorded 2 min apart for 16.5 h using a Cascade 1K CCD camera (Roper Scientific) mounted on a Nikon TE2000 microscope with a 10× objective lens. Single cells were tracked using Metamorph imaging software. A custom MATLAB program calculated the velocity for each cell using the x- and y-coordinates obtained from tracking data using the following equation: […]
Recombinant IL-6 and IL-8 (R&D systems) reconstituted in DPBS (Life technologies) were added to matrix embedded cells with a cell density of 10 cells/mm^3 and imaged as described above (See velocity and protrusion topology of matrix embedded cells). Matrix embedded cells with cell densities of 10 cells/mm^3 and 50 cells/mm^3 were exposed to specific IL-6 and IL-8 functional antibodies (Proteintech) at a concentration of 0.5 μg/mL. Matrix embedded cells with cell densities of 10 cells/mm^3 and 50 cells/mm^3 were exposed to Tocilizumab (Roche) and Reparixin (Dompe pharmaceuticals) STAT3 and WASF3 activity
Matrix embedded with cell densities of 10 cells/mm^3 and 50 cells/mm^3 were exposed to JAK2 inhibitor, AG-490 (Santa Cruz Biotechnology), STAT3 inhibitor, S31-201, (Santa Cruz Biotechnology) and ARP 2/3 complex inhibitor, CK 666, (Sigma-Aldrich) for 1 h before cells were imaged as described above. (See velocity and protrusion topology of matrix embedded cells)

Row | Molecule | cell velocity | cell-density-dependent migration | other results
1 | recombinant IL-6: human recombinant IL-6 (R&D systems) |  |  | cell velocity / cell migration on addition of recombinant cytokine: do not increase cell velocity; cell velocity / cell migration on addition of recombinant cytokine (listed as IL-6): no effect on cell migration
2 | Cc1[nH]c2ccccc2c1CCNC(=O)c1ccccc1F [CK666] | Decreased cell velocity | prevented cell-density-dependent migration | 
3 | Cc1ccc(S(=O)(=O)OCC(=O)Nc2ccc(C(=O)O)c(O)c2)cc1 [S3I-201] | Decreased cell velocity | prevented cell-density-dependent migration | 
4 | CC(C)Cc1ccc([C@@H](C)C(=O)NS(C)(=O)=O)cc1 [Reparixin, (2R)-2-[4-(2-methylpropyl)phenyl]-N-methylsulfonylpropanamide] | decreased cell velocity |  | 
5 | recombinant IL-8: human recombinant IL-8 (R&D systems) |  |  | cell velocity / cell migration on addition of recombinant cytokine: do not increase cell velocity; cell velocity / cell migration on addition of recombinant cytokine (listed as IL-8): no effect on cell migration
6 | N#C/C(=C/c1ccc(O)c(O)c1)C(=O)NCc1ccccc1 [AG-490] | Decreased cell velocity | prevented cell-density-dependent migration | 
7 | Tocilizumab: a recombinant humanized, anti-human IL-6 receptor monoclonal antibody currently used in the treatment of Rheumatoid Arthritis | decreased cell velocity |  | 
